Work on `O=C(O)Cc1cc(C(=O)C=Cc2ccc(Cl)cc2Cl)ccc1O` yielded a melting point of 232 °C. `COc1ccc(Cl)cc1C(=O)NCCc1ccc(-c2ccc(O)cc2)cc1` showed a melting point of 169 °C. Compound `CC(=O)c1ccc(S(=O)(=O)Nc2ccc(Cl)cn2)cc1` has a melting point of 181 to 182 °C. For `CN1CCN(C2=Nc3cc(F)ccc3Nc3ccsc32)CC1`, the melting point was 206 to 208 °C. With `OCCc1c[nH]c2cc(-c3cc(Nc4ccc(N5CCOCC5)cn4)c4nccn4c3)ccc12` the melting point was 159 to 161 °C. In the case of `CNC(=O)Nc1ccc(N2CCN(c3ccncc3)CC2)cc1`, the melting point is reported as 258 to 260 °C. In the case of `COc1cc2cc(C(=O)OC(C)(C)C)c(N)cc2cc1OCCN1CCOCC1`, the melting point is reported as 125 to 127 °C. Compound `COc1ccc(C(=O)c2ccc(OC)c([N+](=O)[O-])c2)cc1[N+](=O)[O-]` has a melting point of 189 to 190 °C. In the case of `CCC(=O)N1N=C(c2ccc(N)cc2)c2cc(C)ccc2CC1C` (centres undefined), the melting point is reported as 166 to 168 °C. With `CC(C)CCCC(C)C1CCC2C3CCC4CC(OC(=O)c5ccccc5)CCC4(C)C3CCC12C` (centres undefined) the melting point was 215 to 216 °C. `FC(F)(F)Sc1ccc(C=Cc2nc(CNc3ccc(CCCCn4ccnn4)cc3)co2)cc1` gave a melting point of 76 to 78 °C. Work on `CNC(=O)Nc1ccc(F)cc1Cl` yielded a melting point of 174 to 178 °C. `O=CNc1cc(Cl)ccc1C=O` gave a melting point of 131 to 136 °C. `COc1ccc2sc(Nc3ccc(OCCCl)cc3)nc2c1` gave a melting point of 176 to 178 °C. In the case of `CN(Cc1cc2c3c(c1)c(=O)c(C(=O)NCc1ccc(Cl)cc1)cn3CC(=O)N2C)C[C@H](O)c1cccnc1`, the melting point is reported as 125 to 127 °C. `C#CCOC(=O)c1ccc(O)c(Cl)c1` gave a melting point of 144 to 145 °C. `Cc1cc(F)ccc1-c1nc(NC2CCCCC2)nc2c1ccc(=O)n2-c1c(F)cccc1F` gave a melting point of 218 to 219 °C. In the case of `CCCCc1ccc(CCCCSCc2cccc(/C=C/c3cccc(NC(=O)CC(CC)(CC)C(=O)O)c3)n2)cc1`, the melting point is reported as 150 to 151 °C. `COc1cc(COc2nn(-c3ccccc3)cc2C(=O)O)ccc1OCc1nc(-c2ccccc2)oc1C` gave a melting point of 209 to 210 °C. `CS(=O)(=O)c1ccc(-c2ccccc2Cc2cccc(F)c2)cc1` gave a melting point of 97 to 98 °C. `O=C(CCC(F)([N+](=O)[O-])[N+](=O)[O-])NNC(=O)C(F)(F)C(F)(F)C(F)(F)F` showed a melting point of 143 to 144 °C. `COc1nc(C)n2nc(SCc3ccccc3)nc2c1Cl` showed a melting point of 115 to 116 °C. `NC(=O)N(O)CCNC(=O)c1cccc(Oc2ccccn2)c1` showed a melting point of 159 to 160 °C. `COc1cc(C2C3=C(COC3=O)Nc3ccc4cc[nH]c4c32)cc(OC)c1OC` (centres undefined) gave a melting point of 299 to 301 °C. In the case of `Cc1cc2cc(N=[N+]=[N-])ccc2[nH]1`, the melting point is reported as 57 to 60 °C. `CCCC(C(=O)N(C)C)n1cc(C)c(-c2ccccc2)n1` (centres undefined) gave a melting point of 84 to 86 °C. `CN(C)NC(=O)c1c([Si](C)(C)C)ccc(Cl)c1Cl` gave a melting point of 144 to 145 °C. In the case of `NC(=O)NC1CCCc2sc(Br)cc21` (centres undefined), the melting point is reported as 206 to 210 °C. In the case of `Cc1cc(C#N)cnc1Oc1c(Cl)cc(N)cc1Cl`, the melting point is reported as 212 °C. Compound `CCCC1=C(C#N)C(c2cccc(Cl)c2Cl)c2c[nH]nc2N1` (centres undefined) has a melting point of 242 °C. With `N#CC1(c2cccs2)CC1` the melting point was 118 to 122 °C. Compound `CN(CCO)c1ccc(C=O)cc1` has a melting point of 72 °C. Compound `COc1nc2cc(C)c(C)cc2nc1C(=O)O` has a melting point of 180 to 182 °C. In the case of `CC(=O)N(O)C(C)c1cccc(Nc2ccccc2C(=O)NN)c1Cl` (centres undefined), the melting point is reported as 193 to 195 °C. Compound `O=C(O)CCn1ccn([C@H]2CCc3c(F)cc(F)cc3C2)c1=S` has a melting point of 182 to 184 °C. Compound `CC(=O)NCCCC(=O)N1CC1C#N` (centres undefined) has a melting point of 72 to 75 °C. `Fc1ccc2c(c1)Sc1ccc(C(F)(F)F)cc1C2=C1CCNCC1` gave a melting point of 125 to 130 °C. Compound `O=C1C2CC(CN(Cc3ccccc3)C2)CN1Cc1ccccc1` (centres undefined) has a melting point of 82.5 to 83.5 °C. Work on `FC(F)(F)Oc1cccc(-c2nc(-c3ccccn3)no2)c1` yielded a melting point of 86 to 88 °C. `C=CCN(c1ccccc1)c1cc(C(N)=O)c(C(=O)O)cc1N(CC=C)c1ccccc1` showed a melting point of 114 to 116 °C. For `CCOC(=O)N1C(=NC#N)NC(C)=C(C(=O)OC)C1c1cccc(Cl)c1Cl` (centres undefined), the melting point was 176 to 178 °C. Work on `CCOC(=O)c1ccc(F)c([N+](=O)[O-])c1` yielded a melting point of 50 °C. `CC1(O)CCN(C(=O)c2cc(-c3cnc4[nH]cc(C(=O)C5(C)CCCCC5)c4n3)cs2)CC1` gave a melting point of 257 to 259 °C. With `COc1cc(C=O)cc2c1OC1(CCCC1)C2` the melting point was 54 °C. Compound `Cc1cc(C(Cl)=C(Cl)Cl)cc(C(Cl)=C(Cl)Cl)c1` has a melting point of 41.4 to 44.6 °C. With `COC(=O)C1=C(C)NC(C)=C(C(=O)OCCN2CCN(C(c3ccccc3)c3ccccc3)CC2)C1c1cccc([N+](=O)[O-])c1` (centres undefined) the melting point was 166 to 169 °C. For `COC(=O)CCCCCNC(=O)c1cccc(OC)c1O`, the melting point was 69 to 70 °C. In the case of `CCOP(=O)(OCC)Oc1ccc(/C=C2/C(=O)Nc3cc(OC)c(OC)cc32)cc1`, the melting point is reported as 139 to 141 °C. For `CC(C)(C)OC(=O)C(CN)CC(=O)N1CCNCC1` (centres undefined), the melting point was 142 °C. Compound `CN(CCCCCCO)c1ccc(C=Cc2ccc(S(C)(=O)=O)cc2)cc1` has a melting point of 113 to 115 °C. In the case of `O=c1[nH]c2cc(Cl)cc(Cl)c2c(=O)n1Cc1ccc(F)cc1`, the melting point is reported as 301 to 304 °C. Compound `CC(C)(C)C(=O)Nc1ccc2cc3c(cc2c1)CCCC3` has a melting point of 202 to 204 °C. In the case of `O=S(=O)(c1ccccc1)c1c(-c2ccc(Cl)cc2)[nH]c(C(F)(F)F)c1Cl`, the melting point is reported as 158 to 161 °C. With `Nc1nc(N)c2ncn(COCCO)c2n1` the melting point was 183 to 184 °C. `Nc1ncnc2ncn(COCCCl)c12` showed a melting point of 184 to 186 °C. With `CCn1cc(C(=O)O)c(=O)c2cc(Cl)c(N3CCN(C)CC3)cc21` the melting point was 260 °C. In the case of `O=Cc1ccc(OCCCCCCOc2ccc(C=O)cc2)cc1`, the melting point is reported as 110 to 111 °C. `N#Cc1ccc(Oc2ccc(S(=O)(=O)NCc3ccc4ccccc4n3)cc2)c(Cl)c1` showed a melting point of 83 to 86 °C. `CNC(=O)N(O)C(C)c1ccc(C#Cc2ccccc2)cc1` (centres undefined) showed a melting point of 138 to 141 °C. Work on `CCOC(=O)C1=C(C)N=C(SCc2ccc(OC)cc2)N(C(=O)OCC)C1c1ccccc1SC` (centres undefined) yielded a melting point of 87 to 89 °C. Compound `Cc1ccccc1CN1CCC(n2c(C)c(-c3ccc(Cl)cc3)[nH]c2=O)CC1` has a melting point of 218 to 220 °C. Compound `CCCCCCOC(=O)C=Nc1cc(Cl)ccc1C(=O)O` has a melting point of 99 °C. Compound `O=C(c1ccc(F)cc1)C1CCN(CCCn2c(=O)[nH]c(=O)c3ccccc32)CC1` has a melting point of 193 °C. For `CCOC(=O)C=c1sc2n(c1=O)Cc1ccccc1N=2`, the melting point was 222 to 224 °C. `CC(=O)OCc1c(Br)cccc1N1Cc2cc(C(C)(C)C)ccc2C1=O` gave a melting point of 176 to 178 °C. `COC(=O)C1CC(c2ccncc2)CCC1=O` (centres undefined) showed a melting point of 82 to 83 °C. Compound `CC(=NOC(=O)N(C)C)C1=CCCN(C)C1` has a melting point of 54 to 55 °C. Work on `O=C(Nc1cn2cc(-n3ccnc3)ccc2n1)c1ccc(-c2ccoc2)cc1` yielded a melting point of 261 to 263 °C. Work on `O=C(NCCO)c1ccc(-c2cccc3cc(Cc4cccc(C(F)(F)F)c4)sc23)cc1` yielded a melting point of 120 to 121 °C. Work on `CCOC(=O)c1cccc(Cn2cnc3ccccc32)c1` yielded a melting point of 68 to 70 °C. Compound `CC(C)NC(=O)c1ccc([N+](=O)[O-])cc1` has a melting point of 152 to 154 °C. With `COC(=O)Nc1ccc(CCc2cc(OC)ccc2OC)cc1C(=O)OC` the melting point was 80 to 82 °C. In the case of `CN(C(=O)c1ccccc1)C1CCC(=O)CC1`, the melting point is reported as 126 to 128 °C. For `CCCn1c(=Nc2ccc(C(=O)OCC)cc2)sc2ncccc2c1=O`, the melting point was 115 to 117 °C. `O=C(Nc1ccccn1)C(CC1CCCC1)c1ccc([N+](=O)[O-])cc1` (centres undefined) showed a melting point of 110 to 115 °C. With `O=C(O)c1ccc(NC(=O)c2ccccc2-c2ccccc2)cc1` the melting point was 246 to 249 °C. `CC(C)(C)OC(=O)Nc1ccc(C#Cc2ccc(F)cc2)cc1N` gave a melting point of 180 °C. Compound `CNc1n[nH]c(=O)n1N` has a melting point of 214 °C. Compound `CCOC(=O)c1cnc2c(OC(F)F)c(F)ccc2c1O` has a melting point of 218 to 219 °C. In the case of `O=C1N[C@H](C(=O)O)Cc2cc(O)c(O)cc21`, the melting point is reported as 268 to 272 °C. With `CC(=O)C1CCC2C3CCC4C=CCCC4(C)C3CCC12C` (centres undefined) the melting point was 135 to 136 °C. `CC(=CCCCC(C)(C)O)c1cccc(C=Cc2cc(O)cc(O)c2)c1` gave a melting point of 55 to 60 °C. Compound `O=C(NNc1ccccc1)N1CCN2C(=O)OC(c3ccccc3)(c3ccccc3)C2C1` (centres undefined) has a melting point of 227 to 228 °C. `COC=C(C(=O)OC)c1ccccc1C=Cc1cscn1` gave a melting point of 117 °C. With `CC1CCCC(C)N1Cc1ccc(N)cc1` (centres undefined) the melting point was 112 to 115 °C. With `CN(c1cccc2cc(C3=NCC(CC(=O)N4CCOCC4)S3)[nH]c12)S(=O)(=O)c1cccs1` (centres undefined) the melting point was 173 to 174 °C. `COc1ccc(C2=C(CC(C)N(C)C(C)C)C(=O)NCCC2)cc1` (centres undefined) gave a melting point of 86 to 88 °C. Work on `Cn1nc2c(cc1=O)CCc1cc(O)ccc1-2` yielded a melting point of over 300 °C. `CC(=O)OCSc1ccc2c3c(cccc13)C(=O)N2` showed a melting point of 149 to 154 °C. In the case of `CCOC(=O)COc1cc(S(C)(=O)=O)ccc1C(=O)NCc1ccc(Br)cc1F`, the melting point is reported as 140 to 143 °C. Compound `COc1ccc(-c2cccc3nc(Nc4cc(OC)c(OC)c(OC)c4)oc23)cc1` has a melting point of 179 to 182 °C. In the case of `Cc1cc(F)ccc1-c1c(O)c(C)c(-c2ccc(F)cc2)oc1=O`, the melting point is reported as 191 to 193 °C. Work on `OCCOC(c1ccccc1)c1ccccc1` yielded a melting point of 95 to 97 °C. `COC(=O)c1cncc(-c2ccc(OC)cc2)c1` gave a melting point of 99 to 101 °C. `O=C(NCCOCc1ccc(C(=O)c2ccccc2)cc1)Nc1ccccc1` showed a melting point of 129 to 132 °C. Work on `COc1ccc2[nH]cc(CCc3nc4ccccc4c(=O)n3-c3ccccc3)c2c1` yielded a melting point of 220 to 221 °C. With `CCN(C(=O)c1ccccc1[Si](C)(C)C)C(OC)C(C)(C)C` (centres undefined) the melting point was 76 to 78 °C. Compound `CC1(C)OC(c2ccc(S(C)(=O)=O)cc2)=C(c2ccc(OC(F)(F)F)cc2)C1=O` has a melting point of 118 to 120 °C. Compound `CC(C#Cc1ccc(Oc2ccc(F)cc2)s1)N(O)C(N)=O` (centres undefined) has a melting point of 149 to 150 °C. `CCCCCCCc1ccc(C(=O)Oc2ccc(C(=O)O)c(Cl)c2)cc1` showed a melting point of 108 °C. With `COc1cc(N2C(=O)c3ccccc3C2=O)c2nc(Cl)cc(C)c2c1Oc1cccc(C(F)(F)F)c1` the melting point was 225 to 227 °C. For `COC(=O)CCCc1cc2nc(Cl)ccc2n1S(=O)(=O)c1ccc2c(c1)CCO2`, the melting point was 201 °C. In the case of `CC(C)(C)C(NC(=O)c1ccc(Cl)cc1)NC(=NC#N)NCc1ccncc1` (centres undefined), the melting point is reported as 189 to 191 °C. For `O=C(O)c1cnn(-c2ccc(F)cc2)c1Cl`, the melting point was 230 to 231 °C.
